Experiments:
[1] = target: human activated kallikrein enzyme (Homo sapiens, UniProt P03952); assay: Plasma kallikrein inhibition, fluorogenic PFR-AMC substrate, 500 pM activated kallikrein format; type: biochemical; conditions: 500 pM activated kallikrein, 300 uM PFR-AMC, 30 min preincubation, 10 min reaction; read-out: Primary Dose Response Assay: Average EC50
Method in brief: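 High-enzyme format of the fluorogenic peptide assay, with EC50 taken from AMC signal: 500 pM activated kallikrein, 300 uM Pro-Phe-Arg-AMC, 30 min compound preincubation and 10 min reaction, all at room temperature, pH 7.5.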

plasma kallikrein = target: T1, plasma kallikrein (Homo sapiens, UniProt P03952); assay: Neat human plasma assay, FXIIa contact pathway-activated, PFR-AMC substrate; type: biochemical; conditions: citrated human plasma 78% final, 10 nM human FXIIa, 100 μM PFR-AMC; read-out: Human Plasma Assay: IC90
T1 construct: from tissue
Method in brief: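 Compound inhibition of plasma kallikrein measured as PFR-AMC (100 μM) cleavage rate over 5 min at room temperature in 78% citrated human plasma activated with 10 nM FXIIa (Tris pH 7.5 buffer). IC50/IC90 from 4-parameter fit of rate versus inhibitor concentration.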

Sequence of human activated kallikrein enzyme (P03952 391-638 limits assumed): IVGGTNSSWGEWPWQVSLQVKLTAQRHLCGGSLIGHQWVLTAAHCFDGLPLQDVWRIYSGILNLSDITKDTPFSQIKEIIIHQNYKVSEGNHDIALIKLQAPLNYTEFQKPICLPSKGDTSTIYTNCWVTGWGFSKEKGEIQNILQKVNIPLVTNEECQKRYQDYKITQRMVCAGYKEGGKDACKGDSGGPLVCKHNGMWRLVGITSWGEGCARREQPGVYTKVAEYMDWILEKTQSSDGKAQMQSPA
Sequence of human activated kallikrein enzyme (P03952 20-390 partner limits assumed): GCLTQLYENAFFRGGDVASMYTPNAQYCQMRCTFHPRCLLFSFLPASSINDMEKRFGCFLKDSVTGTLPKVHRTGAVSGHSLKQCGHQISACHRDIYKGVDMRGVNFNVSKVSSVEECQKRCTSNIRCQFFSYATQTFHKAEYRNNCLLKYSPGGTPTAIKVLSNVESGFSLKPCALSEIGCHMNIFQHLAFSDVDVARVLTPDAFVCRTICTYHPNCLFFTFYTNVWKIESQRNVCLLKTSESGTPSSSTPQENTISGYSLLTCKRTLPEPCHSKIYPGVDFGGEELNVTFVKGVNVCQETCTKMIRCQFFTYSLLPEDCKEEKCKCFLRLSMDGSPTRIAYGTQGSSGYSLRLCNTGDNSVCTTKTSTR
T1 sequence (P03952 391-638 limits assumed): as the sequence (P03952 391-638 limits assumed) above
T1 sequence (P03952 20-390 partner limits assumed): as the sequence (P03952 20-390 partner limits assumed) above

With `CN(C)C1CCN(c2cc(C3CC3)cn3cc(CNc4cc(NC(=O)[C@H]5C[C@@H]5c5cccc(Cl)c5)ncn4)nc23)C1=O` (stereo partly drawn) [Example I-17, (1S,2S)-2-(3-chlorophenyl)-N-(6-(((6-cyclopropyl-8-(3-(dimethylamino)-2-oxopyrrolidin-1-yl)imidazo[1,2-a]pyridin-2-yl)methyl)amino)pyrimidin-4-yl)cyclopropane-1-carboxamide] the EC50 [1] was < 1 nM and the IC90 (plasma kallikrein) was 400 to 1500 nM.
